These results are taken from article PMC3454369, “Functional Redundancy of Class I Phosphoinositide 3-Kinase (PI3K) Isoforms in Signaling Growth Factor-Mediated Human Neutrophil Survival” (PLoS ONE, 2012).

One assay deals with p110δ (Homo sapiens, UniProt O00329). The conditions noted are these: in vitro kinase assay; data compiled from published work; cited from earlier work.
The next assay deals with p110α (Homo sapiens, UniProt P42336). Particulars: in vitro kinase assay; data compiled from published work; cited from earlier work.
Chain of p110α (P42336 whole entry, species assumed): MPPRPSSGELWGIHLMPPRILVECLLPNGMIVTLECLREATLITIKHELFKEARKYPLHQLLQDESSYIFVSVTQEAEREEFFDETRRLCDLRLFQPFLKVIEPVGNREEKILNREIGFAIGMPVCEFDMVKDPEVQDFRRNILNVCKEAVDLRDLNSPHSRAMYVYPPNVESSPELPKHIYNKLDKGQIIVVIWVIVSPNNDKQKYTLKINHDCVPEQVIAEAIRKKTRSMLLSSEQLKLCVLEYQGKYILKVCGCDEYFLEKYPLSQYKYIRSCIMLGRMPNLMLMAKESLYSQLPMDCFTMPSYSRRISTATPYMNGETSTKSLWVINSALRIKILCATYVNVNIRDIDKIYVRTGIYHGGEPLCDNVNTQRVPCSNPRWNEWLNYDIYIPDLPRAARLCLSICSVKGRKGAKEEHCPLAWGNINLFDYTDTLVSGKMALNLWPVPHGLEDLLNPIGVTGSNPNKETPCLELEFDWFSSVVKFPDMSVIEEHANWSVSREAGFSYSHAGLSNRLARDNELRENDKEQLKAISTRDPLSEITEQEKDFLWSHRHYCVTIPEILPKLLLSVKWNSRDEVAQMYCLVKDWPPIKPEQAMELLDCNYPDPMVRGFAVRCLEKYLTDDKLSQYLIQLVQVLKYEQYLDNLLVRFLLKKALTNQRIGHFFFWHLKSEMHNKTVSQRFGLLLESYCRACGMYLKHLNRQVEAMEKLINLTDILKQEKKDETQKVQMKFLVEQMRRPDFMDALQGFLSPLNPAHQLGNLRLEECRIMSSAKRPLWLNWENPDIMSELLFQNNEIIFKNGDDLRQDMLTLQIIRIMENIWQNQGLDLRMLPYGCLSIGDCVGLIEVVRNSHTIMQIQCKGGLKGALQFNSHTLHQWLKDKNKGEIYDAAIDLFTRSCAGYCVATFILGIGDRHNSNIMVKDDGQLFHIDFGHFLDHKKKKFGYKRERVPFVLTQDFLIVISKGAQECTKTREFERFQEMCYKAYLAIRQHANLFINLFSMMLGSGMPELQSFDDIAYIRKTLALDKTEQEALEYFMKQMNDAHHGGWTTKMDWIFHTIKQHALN
Chain of p110α (P27986 whole entry partner, species assumed): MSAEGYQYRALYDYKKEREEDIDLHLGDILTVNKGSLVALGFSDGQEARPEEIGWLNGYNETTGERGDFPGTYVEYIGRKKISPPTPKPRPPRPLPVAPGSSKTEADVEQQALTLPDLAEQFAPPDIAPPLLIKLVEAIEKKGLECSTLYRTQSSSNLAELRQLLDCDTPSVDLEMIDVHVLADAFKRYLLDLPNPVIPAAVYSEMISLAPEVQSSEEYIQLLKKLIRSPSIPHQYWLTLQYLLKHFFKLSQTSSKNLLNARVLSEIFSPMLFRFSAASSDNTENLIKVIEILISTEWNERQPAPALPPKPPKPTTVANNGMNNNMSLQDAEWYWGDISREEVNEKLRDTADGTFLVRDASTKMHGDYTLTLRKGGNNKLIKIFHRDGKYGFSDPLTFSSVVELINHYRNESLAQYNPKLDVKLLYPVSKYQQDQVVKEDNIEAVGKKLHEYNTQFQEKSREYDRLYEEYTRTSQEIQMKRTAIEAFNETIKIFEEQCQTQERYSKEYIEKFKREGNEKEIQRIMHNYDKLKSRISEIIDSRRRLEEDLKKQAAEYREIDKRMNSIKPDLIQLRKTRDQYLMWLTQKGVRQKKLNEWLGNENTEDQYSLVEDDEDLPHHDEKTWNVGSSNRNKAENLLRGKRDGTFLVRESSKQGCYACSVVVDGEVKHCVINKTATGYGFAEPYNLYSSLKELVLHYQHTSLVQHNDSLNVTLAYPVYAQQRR
The test system of a further assay is Human neutrophils. Put plainly: rhGM-CSF-modulated human neutrophil apoptosis, annexin V/PI flow cytometry. It counts as cell-based. Particulars: inhibitor 10 µM, rhGM-CSF 10 ng/ml, 20 h. As to the method: To examine the effects of small molecule PI3K inhibitors on rhGM-CSF (10 ng/ml) -modulated apoptosis, neutrophils (5×10^6/ml) were re-suspended in Iscove’s modified Dulbecco medium (IMDM) supplemented with 10% autologous serum, 100 U/mL penicillin and 100 µg/mL streptomycin in non-tissue culture treated flat bottom Falcon Flexiwell plates in a humidified 5% CO2 atmosphere at 37°C.
(In general: A flow cytometer gives signals particle by particle.)

The next assay concerns the target p110γ (Homo sapiens, UniProt P48736). Particulars: in vitro kinase assay; data compiled from published work; cited from earlier work.

Structures are written as SMILES. pIC50: −log10 of the molar value.

Chain of p110δ (O00329 whole entry, species assumed): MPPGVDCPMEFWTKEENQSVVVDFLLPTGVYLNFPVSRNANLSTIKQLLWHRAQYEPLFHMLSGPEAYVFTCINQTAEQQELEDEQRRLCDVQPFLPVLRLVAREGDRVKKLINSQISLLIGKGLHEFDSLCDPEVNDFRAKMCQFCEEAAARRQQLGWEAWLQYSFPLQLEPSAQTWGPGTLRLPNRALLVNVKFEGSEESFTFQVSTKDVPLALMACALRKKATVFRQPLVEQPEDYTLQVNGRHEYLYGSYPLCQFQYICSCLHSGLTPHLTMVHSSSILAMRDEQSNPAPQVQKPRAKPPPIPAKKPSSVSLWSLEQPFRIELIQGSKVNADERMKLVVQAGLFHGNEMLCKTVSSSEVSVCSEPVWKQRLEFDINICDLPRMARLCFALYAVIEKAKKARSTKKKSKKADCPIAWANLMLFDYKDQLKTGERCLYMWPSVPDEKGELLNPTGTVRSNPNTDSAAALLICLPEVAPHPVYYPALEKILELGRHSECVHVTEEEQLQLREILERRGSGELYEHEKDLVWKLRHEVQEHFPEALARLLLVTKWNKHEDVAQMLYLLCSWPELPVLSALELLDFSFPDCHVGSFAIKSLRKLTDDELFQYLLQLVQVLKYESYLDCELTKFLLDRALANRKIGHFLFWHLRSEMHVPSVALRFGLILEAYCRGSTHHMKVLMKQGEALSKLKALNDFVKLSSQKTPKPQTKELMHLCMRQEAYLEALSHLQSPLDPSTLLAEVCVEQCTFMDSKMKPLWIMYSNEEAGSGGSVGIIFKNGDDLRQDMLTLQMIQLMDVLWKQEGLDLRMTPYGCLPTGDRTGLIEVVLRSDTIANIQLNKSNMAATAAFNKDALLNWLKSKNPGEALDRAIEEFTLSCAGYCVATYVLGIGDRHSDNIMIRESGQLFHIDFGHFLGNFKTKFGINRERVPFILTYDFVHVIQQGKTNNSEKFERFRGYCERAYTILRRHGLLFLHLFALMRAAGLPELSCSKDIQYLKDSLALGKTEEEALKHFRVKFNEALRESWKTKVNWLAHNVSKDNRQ
Chain of p110δ (P27986 whole entry partner, species assumed): as the sequence (P27986 whole entry partner, species assumed) above
Chain of p110γ (P48736 whole entry, species assumed): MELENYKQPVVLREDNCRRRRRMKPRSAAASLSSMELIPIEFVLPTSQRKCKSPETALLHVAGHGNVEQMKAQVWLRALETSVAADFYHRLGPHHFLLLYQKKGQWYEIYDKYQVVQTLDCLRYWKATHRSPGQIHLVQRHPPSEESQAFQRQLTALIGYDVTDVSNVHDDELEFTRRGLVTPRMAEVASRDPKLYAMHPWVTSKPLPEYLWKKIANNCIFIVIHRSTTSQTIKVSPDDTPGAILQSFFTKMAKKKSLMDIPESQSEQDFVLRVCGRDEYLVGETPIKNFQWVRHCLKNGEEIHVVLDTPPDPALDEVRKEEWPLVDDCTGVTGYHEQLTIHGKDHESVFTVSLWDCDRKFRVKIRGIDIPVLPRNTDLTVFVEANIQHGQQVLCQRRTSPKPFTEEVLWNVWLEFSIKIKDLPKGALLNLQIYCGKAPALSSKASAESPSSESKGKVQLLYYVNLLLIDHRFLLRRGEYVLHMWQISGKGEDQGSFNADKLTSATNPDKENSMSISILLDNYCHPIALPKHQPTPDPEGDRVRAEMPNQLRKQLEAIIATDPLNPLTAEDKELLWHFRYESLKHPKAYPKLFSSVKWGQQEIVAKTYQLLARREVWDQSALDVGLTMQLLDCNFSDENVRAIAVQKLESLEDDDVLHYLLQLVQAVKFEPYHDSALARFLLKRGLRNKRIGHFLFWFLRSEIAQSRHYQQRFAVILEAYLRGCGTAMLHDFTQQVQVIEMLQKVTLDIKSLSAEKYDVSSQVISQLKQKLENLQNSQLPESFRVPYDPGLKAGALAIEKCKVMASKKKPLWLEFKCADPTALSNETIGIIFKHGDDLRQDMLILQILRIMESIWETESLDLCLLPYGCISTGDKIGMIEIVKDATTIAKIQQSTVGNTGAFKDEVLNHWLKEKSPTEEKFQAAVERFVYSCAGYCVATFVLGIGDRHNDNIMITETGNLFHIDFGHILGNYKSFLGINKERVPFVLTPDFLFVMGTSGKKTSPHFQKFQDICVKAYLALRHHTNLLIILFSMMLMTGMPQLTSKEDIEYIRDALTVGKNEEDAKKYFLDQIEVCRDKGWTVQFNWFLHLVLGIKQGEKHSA

By pIC50 is commonly meant the IC50 on a negative log10 scale, so that one unit is a factor of ten. Take `Cc1cc(C(C)Nc2ccccc2)c2nc(N3CCOCC3)cc(=O)n2c1` (stereo not shown) [TGX-221]: the pIC50 on p110δ is 7.00; at p110α, 5.30; at p110γ it was 5.46. The “Effect on rhGM-CSF-mediated human neutrophil survival” value in the assay on Human neutrophils was “failed to abrogate GM-CSF mediated survival”.
